ChEMBL document CHEMBL5678818, “Discovery of potent SOS1 inhibitors that block RAS activation via disruption of the RAS-SOS1 interaction” (Proc Natl Acad Sci U S A, 2019)

Experiments:
[1] = molecular target: T1, Son of sevenless homolog 1 (Homo sapiens) (UniProt Q07889); test: Inhibition of SOS1 in human Calu-1 cells assessed as pERK level incubated for 24 hrs by HTRF analysis relative to control; format: cell-based; set-up: scale not given: the % may be the effect or the level left
T1 sequence (whole entry): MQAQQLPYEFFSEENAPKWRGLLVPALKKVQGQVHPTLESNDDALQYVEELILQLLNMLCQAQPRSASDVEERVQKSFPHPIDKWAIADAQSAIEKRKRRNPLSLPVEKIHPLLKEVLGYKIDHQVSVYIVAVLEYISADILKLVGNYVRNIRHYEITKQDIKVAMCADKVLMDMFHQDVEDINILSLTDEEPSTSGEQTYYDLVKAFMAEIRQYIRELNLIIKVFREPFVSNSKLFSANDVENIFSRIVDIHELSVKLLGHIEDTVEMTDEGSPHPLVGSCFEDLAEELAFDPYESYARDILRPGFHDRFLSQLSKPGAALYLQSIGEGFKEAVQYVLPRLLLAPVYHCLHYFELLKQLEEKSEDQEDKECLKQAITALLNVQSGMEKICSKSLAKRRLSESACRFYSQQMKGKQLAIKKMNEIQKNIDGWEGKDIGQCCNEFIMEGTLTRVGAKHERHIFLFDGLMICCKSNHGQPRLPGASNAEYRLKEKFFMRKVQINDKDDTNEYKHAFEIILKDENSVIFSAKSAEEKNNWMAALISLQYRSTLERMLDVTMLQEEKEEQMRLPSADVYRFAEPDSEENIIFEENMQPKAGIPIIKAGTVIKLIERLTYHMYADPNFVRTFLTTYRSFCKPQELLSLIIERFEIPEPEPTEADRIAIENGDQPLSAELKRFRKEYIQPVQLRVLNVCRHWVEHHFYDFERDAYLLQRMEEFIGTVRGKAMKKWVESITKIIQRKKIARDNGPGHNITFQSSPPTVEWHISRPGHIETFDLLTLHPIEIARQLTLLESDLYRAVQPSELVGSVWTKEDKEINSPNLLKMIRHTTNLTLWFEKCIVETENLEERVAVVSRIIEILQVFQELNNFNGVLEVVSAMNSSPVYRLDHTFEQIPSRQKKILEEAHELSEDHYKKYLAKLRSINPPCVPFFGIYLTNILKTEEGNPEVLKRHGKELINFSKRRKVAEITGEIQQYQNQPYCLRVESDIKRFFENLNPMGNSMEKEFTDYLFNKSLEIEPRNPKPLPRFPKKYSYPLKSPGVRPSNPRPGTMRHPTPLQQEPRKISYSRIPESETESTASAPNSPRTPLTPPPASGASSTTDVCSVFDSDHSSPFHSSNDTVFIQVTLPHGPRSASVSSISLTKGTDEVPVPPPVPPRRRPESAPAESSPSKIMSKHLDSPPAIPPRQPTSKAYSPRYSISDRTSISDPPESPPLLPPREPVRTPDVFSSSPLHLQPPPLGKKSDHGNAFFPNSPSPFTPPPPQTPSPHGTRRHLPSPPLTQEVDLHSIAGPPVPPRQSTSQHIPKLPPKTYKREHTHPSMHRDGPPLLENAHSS

[2] = molecular target: T2, Son of sevenless homolog 1 (Homo sapiens, UniProt Q07889); test: (§1) Inhibition of N-terminal His10-tagged wild-type recombinant human SOS1 catalytic domain (564 to 1049 residues) expressed in Escherichia coli assessed as reduction in KRAS G12C mutant activation preincubated for 10 mins with KRAS followed by SOS1 addition measured after 30 mins in presence of EDA-GTP-DY-647P1 by HTRF analysis
[3] = molecular target: T3, Son of sevenless homolog 1 (Homo sapiens, UniProt Q07889); test: Inhibition of N-terminal His10-tagged wild-type recombinant human SOS1 catalytic domain (564 to 1049 residues) expressed in Escherichia coli assessed as reduction in wild-type KRAS activation preincubated for 10 mins with KRAS followed by SOS1 addition measured after 30 mins in presence of EDA-GTP-DY-647P1 by HTRF analysis
T3 sequence (Q07889 whole entry): T1 sequence (whole entry)

[4] = molecular target: Son of sevenless homolog 2 (Homo sapiens, UniProt Q07890); test: as §1, with “SOS2” for “SOS1”, “1043” for “1049”
GTPase KRas = GTPase KRas (Homo sapiens, UniProt P01116, G12C); test: Inhibition of N-terminal GST-tagged recombinant human KRAS G12C mutant (1 to 169 residues) expressed in Escherichia coli assessed as reduction in intrinsic GTP exchange preincubated for 10 mins with KRAS followed by SOS1 addition measured after 30 mins in presence of EDA-GTP-DY-647P1 by HTRF analysis
[5] = molecular target: T2, Son of sevenless homolog 1; test: as §1, with “for 2” for “for 10”, “after 20” for “after 30”
SOS1-KRAS = SOS1-KRAS (Homo sapiens, UniProt Q07889); test: Inhibition of N-terminal GST-tagged recombinant human KRAS G12C mutant (1 to 169 residues) expressed in Escherichia coli/N-terminal His10-tagged wild-type recombinant human SOS1 catalytic domain (564 to 1049 residues) expressed in Escherichia coli protein-protein interaction preincubated for 2 mins with KRAS followed by SOS1 addition measured after 60 mins in presence of anti-6His-XL665 by HTRF analysis
GTPase KRas/RAF1 = GTPase KRas/RAF1 (Homo sapiens, UniProt P01116+P04049); test: Inhibition of N-terminal His10-tagged wild-type recombinant human KRAS (1 to 169 residues) expressed in Escherichia coli/N-terminal GST-tagged recombinant human CRAF RBD (51 to 131 residues) expressed in Escherichia coli protein-protein interaction preincubated for 30 mins with KRAS followed by CRAF RBD addition measured after 60 mins in presence of anti-6His-XL665/GTP by HTRF analysis
[6] = molecular target: T4, Guanine nucleotide exchange factor DBS (Homo sapiens, UniProt O15068); test: Inhibition of human DBS assessed as reduction in CDC42 activation preincubated for 1 min with CDC42 followed by DBS addition measured after 20 mins in presence of EDA-GTP-DY-647P1 by HTRF analysis
T4 sequence (O15068 whole entry): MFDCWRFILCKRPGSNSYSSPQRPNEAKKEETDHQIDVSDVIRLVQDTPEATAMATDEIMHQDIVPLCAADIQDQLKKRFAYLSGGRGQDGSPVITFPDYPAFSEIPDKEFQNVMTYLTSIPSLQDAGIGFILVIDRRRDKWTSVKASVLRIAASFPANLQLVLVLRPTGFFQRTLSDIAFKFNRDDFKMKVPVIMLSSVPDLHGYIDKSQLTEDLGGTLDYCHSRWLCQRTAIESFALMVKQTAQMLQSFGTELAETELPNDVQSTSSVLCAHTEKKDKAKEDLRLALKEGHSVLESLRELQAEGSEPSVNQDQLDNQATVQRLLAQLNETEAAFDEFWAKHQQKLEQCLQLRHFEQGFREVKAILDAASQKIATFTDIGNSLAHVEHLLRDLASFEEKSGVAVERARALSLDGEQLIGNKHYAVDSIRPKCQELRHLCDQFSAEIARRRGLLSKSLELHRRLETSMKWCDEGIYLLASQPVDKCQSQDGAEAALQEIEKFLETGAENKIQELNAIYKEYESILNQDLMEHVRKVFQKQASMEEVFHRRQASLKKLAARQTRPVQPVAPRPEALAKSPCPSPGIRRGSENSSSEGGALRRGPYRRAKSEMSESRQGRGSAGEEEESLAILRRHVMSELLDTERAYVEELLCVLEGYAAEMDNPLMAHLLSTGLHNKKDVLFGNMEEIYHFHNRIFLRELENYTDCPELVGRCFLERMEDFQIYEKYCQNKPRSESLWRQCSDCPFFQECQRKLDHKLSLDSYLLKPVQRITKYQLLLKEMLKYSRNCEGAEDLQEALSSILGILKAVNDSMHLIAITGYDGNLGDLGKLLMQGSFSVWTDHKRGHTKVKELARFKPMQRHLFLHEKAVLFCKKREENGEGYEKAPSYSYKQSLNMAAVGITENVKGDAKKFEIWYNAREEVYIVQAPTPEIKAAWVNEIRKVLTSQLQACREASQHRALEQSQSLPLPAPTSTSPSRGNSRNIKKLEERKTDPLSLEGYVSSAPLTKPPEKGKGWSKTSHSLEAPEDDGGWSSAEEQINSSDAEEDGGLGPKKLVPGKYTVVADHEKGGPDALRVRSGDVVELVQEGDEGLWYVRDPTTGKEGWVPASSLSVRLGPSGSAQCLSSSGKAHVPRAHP

[7] = molecular target: Epidermal growth factor receptor (Homo sapiens, UniProt P00533); test: Inhibition of human EGFR using biotin-aminohexyl-AEEEEYFELVAKKK as substrate preincubated for 15 mins followed by substrate/ATP addition measured after 20 mins by FRET assay
[8] = molecular target: T3, Son of sevenless homolog 1; test: Inhibition of SOS1 in human Calu-1 cells assessed as reduction in RAS activation pretreated for 30 mins followed by EGF stimulation for 3 mins by G-LISA analysis; format: cell-based
[9] = molecular target: T3, Son of sevenless homolog 1; test: Inhibition of SOS1 in human HeLa cells assessed as reduction in RAS activation pretreated for 30 mins followed by EGF stimulation for 3 mins by G-LISA analysis; format: cell-based
[10] = molecular target: T3, Son of sevenless homolog 1; test: Inhibition of SOS1 in human K562 cells assessed as reduction in pERK level incubated for 60 mins by HTRF analysis; format: cell-based
[11] = molecular target: T3, Son of sevenless homolog 1; test: Inhibition of SOS1 in human Calu-1 cells assessed as reduction in pERK level incubated for 24 hrs by HTRF analysis; format: cell-based
[12] = molecular target: T3, Son of sevenless homolog 1; test: Inhibition of SOS1 in human MOLM-13 cells assessed as reduction in pERK level incubated for 60 mins by HTRF analysis; format: cell-based
Calu-1 = test: Antiproliferative activity against human Calu-1 cells assessed as inhibition of cell viability incubated for 72 hrs by Cell Titer Glo assay; format: functional, cell-based; settings: Calu-1, 72 h

`C=CC(=O)N1CC(N2CCN(C(=O)CNc3cc(C4(C)CC4)c(Cl)cc3O)CC2)C1` showed an Activity [1] of 50%.

In the case of `COc1cc2nc(C)nc(NC(C)c3ccc(-c4cnc5n4CCC5)s3)c2cc1OC` (stereo unspecified), the IC50 [2] is reported as 930 nM, the IC50 [3] is reported as 550 nM and the IC50 [4] is reported as greater than 20 µM. The IC50 (GTPase KRas) was greater than 20 µM, the IC50 [5] was 650 nM and the IC50 (SOS1-KRAS) was 400 nM. The IC50 (GTPase KRas/RAF1) was greater than 20 µM, the IC50 [6] was greater than 20 µM and the IC50 [7] was greater than 20 µM. For the same compound, the IC50 [8] was 2000 nM, the IC50 [9] was 5.34 µM and the IC50 [10] was 1160 nM. The IC50 [11] was 4.46 µM, the IC50 [12] was 450 nM and the IC50 (Calu-1) was 870 nM.
